Target: T1, LTD4 (Cavia porcellus, UniProt Q2NNR5)
T1 construct: tracheal spiral strips of approximate dimensions 2 to 3 mm cross-sectional width; from tissue; host or cells: guinea pig (adult male albino Hartley) tracheal spiral strips
T1 sequence (Q2NNR5 1-340): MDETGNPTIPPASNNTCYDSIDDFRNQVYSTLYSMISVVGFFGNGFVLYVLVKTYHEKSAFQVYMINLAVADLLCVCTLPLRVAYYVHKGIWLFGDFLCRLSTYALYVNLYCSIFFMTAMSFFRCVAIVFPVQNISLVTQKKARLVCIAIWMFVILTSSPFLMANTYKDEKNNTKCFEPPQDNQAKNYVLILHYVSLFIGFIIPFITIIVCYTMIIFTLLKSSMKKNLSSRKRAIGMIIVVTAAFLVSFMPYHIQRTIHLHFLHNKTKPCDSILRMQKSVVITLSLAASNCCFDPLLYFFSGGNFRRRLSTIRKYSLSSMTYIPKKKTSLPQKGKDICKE
Experiment: inhibition of leukotriene (LTD4) induced contraction of guinea pig tracheal tissues in vitro
Assay type: cell-based
Method: The leukotriene antagonist activity of the compounds of this invention was measured by the ability of the compounds to inhibit the leukotriene induced contraction of guinea pig tracheal tissues in vitro. The following methodology was employed: In vitro: Guinea pig (adult male albino Hartley strain) tracheal spiral strips of approximate dimensions 2 to 3 mm cross-sectional width and 3.5 cm length were bathed in modified Krebs buffer in jacketed 10 ml tissue bath and continuously aerated with 95% O2 /5% CO2. The tissues were connected via silk suture to force displacement transducers for recording isometric tension. The tissues were equilibrated for 1 hour, pretreated for 15 minutes with meclofenamic acid ([…]) to remove intrinsic prostaglandin responses, and then pretreated for an additional 30 minutes with either the test compound or vehicle control. […]
Calculations: The averages of the triplicate LTD4 concentration-response curves both in the presence and absence of the test compound were plotted on log graph paper. The concentration of LTD4 needed to elicit 30% of the contraction elicited by carbachol was measured and defined as the EC30. The -log KB value for the test compound was determined by the following equations: [formula] […]
The antagonist activity of representative compounds of this invention is tabulated below. The -log KB values were calculated from the above test protocols. […]

## O=C(O)CCSC(CC(=O)O)c1ccccc1CCCCCCCc1ccc2ccc(Cl)cc2n1 (centres unmarked) [3-{2-[7-(2-(7-Chloro)quinolinyl)heptyl]phenyl}-3,3'-thiodipropionic acid]
LTD4 concentration-response on guinea pig tracheal spiral strips, EC30 shift, 30 min pretreatment with test compound, read-out: pKB (-log KB) (converted)
  Kb: 31.6 nM
Stated as 'in this assay', separate method not given
  Ki: 7.7 nM

— patent US4996214A, “Quinolinyl substituted phenyl/thioalkanoic acid substituted propionic acids and leucotriene antagonist use thereof” (SmithKline Beecham Corporation, priority 1990, dated 1991)
